Tests used:
Type in all cases: cell-based
[1] = tested on: PC-3 cells; experiment: Primary 3D screen in Matrigel ECM, morphometric image analysis (AMIDA) of invasion, growth and cell death; settings: PC-3 in 3D Matrigel; for anti-invasive effects in 3D culture (in words): 0.03-1 μM
Method: Three standard of care compounds widely used against PrCa were added as controls; namely, the androgen receptor antagonist enzalutamide (MDV3100), the C17α-hydroxylase/C17,20-lyase inhibitor abiraterone (Zytiga), and the classic mitotic inhibitor paclitaxel. Treatments started at day 4, when well-differentiated round acini were established.
The live 3D cell cultures were then stained with reactive dyes Calcein AM to detect living, and ethidium homodimer to detect dead cells. Images (Fig 4A) were acquired with confocal microscope and image data were analyzed with the AMIDA software. The principles of morphometric image analysis are briefly outlined in S2 Fig.
Fig 4 Primary 3D screen. PC-3 cells were cultured in 3D Matrigel ECM for 4 days and treated for 6 days with 25 betulin derivatives (from 2D high throughput screens), DMSO/vehicle control, and three reference compounds. A) Representative maximum intensity projections of confocal microscope stack images for selected compound treatments at 300 nM concentration (5× objective, scale 100 μm). B) Three graphs showing the relative impact on three morphometric parameters for 7 betulin derivatives, DMSO control, and one control compound (paclitaxel). […] C) Hierarchical clustering was done using three morphological parameters derived from PC3 organoids: spheroid size (area), complexity and the number of dead cells. D) Wound healing curves of the two betulin derivatives 4 and 20, highlighting the 50% cut-off level (orange dashed line).
Next, statistical analyses were performed to interpret the complex image data (Fig 4B and 4C). For simplicity, we focused on only three, basic morphologic parameters from the multiparametric AMIDA readout (Fig 4B): 1) Area (indicating growth of organoids), 2) structural Complexity (as a measure of the intensity of invasion), and 3) Relative Area of dead cells within organoids (red signal as a measure of cytoxicity or apoptosis). Area (Size of organoids; Fig 4B, upper panel) was measured as the number of pixels within a segmented structure. […] Shape Complexity (Fig 4B, middle panel) was obtained using the structure size (area) and perimeter (number of border pixels). The more regular the shape of an organoid, the closer it is to a perfect circle, thus minimizing the perimeter relative to object size. […] Deviations from this average (residuals) were interpreted as a measure for the shape complexity of organoids. As a logical lower limit for this measure (represented by a perfect circle), we adjusted the intercept (height level) of the regression line to render all returned residuals as positive numbers.
All 3D cultures were done in growth factor-free Matrigel Basement-membrane Matrix (Corning Inc., New York, NY, USA) using 96-well Angiogenesis μ-plates (ibidi GmbH, Munich, Germany) as described before.[38] “Sandwich” assays in short: bottom wells of cooled Angiogenesis plates were filled with 10 μL 4 mg/mL Matrigel, centrifuged for 20 min 200 g and incubated at 37°C temperature for approximately 30–60 min or until the ECM had polymerized. 1,000–1,500 cells were mixed in 2 mg/mL ECM-medium, and 20 μL of cell suspension was added in each well. The plates were centrifuged for 10 min at 100 g, or until the cells had settled on top of the lower ECM. Finally, the outer wells and side reservoirs were filled with water for humidification, and the culture plates placed into the incubator for 3–4 h or overnight. The following day, 60 μL of cell culture medium were added; refreshed every third day by carefully aspirating the medium.

[2] = tested on: PC3 cells; experiment: Cell morphology and actin cytoskeleton in 2D monolayer culture; settings: PC3, 2D, 72h
Method: As a control, we also tested morphologies treated with the same panel of anti-invasive compounds 4, 5, 6, 16 and 20 as well as betulin (1) on PC3 cells grown in 2D monolayer cultures (S9 Fig).
Supplementary file pone.0126111.s009.tif: S9 Fig Morphologies of PC-3, LNCaP and Ep156T cells in 2D monolayer culture, exposed 72h to selected betulin derivatives. Actin cytoskeleton (filamentous or F- actin) is stained green (LifeAct), nuclei with a red dye (confocal microscope images, 40× objective, scale bar shown for each panel on the right lower corner). (TIF) Click here for additional data file.

[3] = tested on: PC-3; experiment: Wound healing assay in 2D monolayer culture (IncuCyte); settings: example for inactive derivatives
Method: Cells were cultured on ImageLock plates (Essen Bioscience, Ann Arbor, MI, USA) until fully confluent and scratched with a WoundMaker instrument (Essen Bioscience). All detached cells were removed by aspiration and medium supplemented with experimental compounds was added. Wound closure was monitored and quantified with the IncuCyte live-cell imager (Essen Bioscience).
A) Graph showing the transition of PC-3 spheroids from symmetrical acini to irregular invasive structures over 6 days, as measured by general symmetry (roundness %). […] B) Conventional wound healing assay performed in monolayer culture over a period of 64 hours. Wound closure is measured as relative wound density i.e. percentage of original wound area reclaimed by migrating cells. […] (EPS) Click here for additional data file.

[4] = tested on: LAPC-4; experiment: Secondary 3D screen (spheroid size, complexity, cell death); settings: yellow and red clusters
Text: Next, the 25 selected betulin derivatives depicted in Figs 1–3 including control compounds were again thoroughly tested across the same panel of prostate-derived cell lines already used in the preliminary, 2D high-throughput screen. The resulting dendrograms were either generated separately for each cell line (S4 Fig), combined into a single dendrogram (Fig 5A), or shown as reduced organoid sizes (area; Fig 5B).
Fig 5 Secondary 3D screens. Experimental betulin derivatives and control compounds were tested across a panel of prostate cancer lines (LNCaP, LAPC-4) and non-transformed, prostate epithelial cells (EP156T) in 3D culture. A) The dendrogram is based on three main morphological parameters and combines all data from primary and secondary 3D screens. […] B) Boxplots showing the impact of selected compounds on spheroid size (Area). Data scaling: as described in Fig 4 C) Effects of all betulin derivatives and control compounds on cell death (number of dead cells).
All 3D cultures were done in growth factor-free Matrigel Basement-membrane Matrix (Corning Inc., New York, NY, USA) using 96-well Angiogenesis μ-plates (ibidi GmbH, Munich, Germany) as described before.[38] “Sandwich” assays in short: bottom wells of cooled Angiogenesis plates were filled with 10 μL 4 mg/mL Matrigel, centrifuged for 20 min 200 g and incubated at 37°C temperature for approximately 30–60 min or until the ECM had polymerized. 1,000–1,500 cells were mixed in 2 mg/mL ECM-medium, and 20 μL of cell suspension was added in each well. The plates were centrifuged for 10 min at 100 g, or until the cells had settled on top of the lower ECM. Finally, the outer wells and side reservoirs were filled with water for humidification, and the culture plates placed into the incubator for 3–4 h or overnight. The following day, 60 μL of cell culture medium were added; refreshed every third day by carefully aspirating the medium. This “sandwich” setting allows almost unifocal alignment of cells and 3D structures in a single optical plane, thus reducing the time required for confocal stack imaging.
All control compounds were purchased from Selleck (Munich, Germany), except for staurosporine (Sigma-Aldrich, St. Louis, MO, USA) and Y-27632 (Tocris, Bristol, UK) and dissolved in dimethyl sulfoxide (DMSO) as a vehicle at 10 mM. In the primary and secondary 3D screens, experimental and control compound exposures were performed in triplicates. Four concentrations for each compound were applied (0.03, 0.1, 0.3 and 1 μM). Compound treatments were initiated four days after cell embedding, and continued for six days after which spheroids were stained and imaged.
Supplementary file pone.0126111.s004.eps: S4 Fig Secondary screens. Dendrograms for A) LNCaP, B) LAPC-4, and C) Ep156T betulin screens in 3D culture have been constructed using three main read-outs: spheroid size, spheroid complexity, and cell death. […] (EPS) Click here for additional data file.

Row | Structure (SMILES) | anti-invasive effects in 3D culture (in words) ([1]; 6 days treatment) | also measured
1 | C=C(C)[C@@H]1CC[C@]2(C(=O)N3CCCC3)CC[C@]3(C)C(CCC4[C@@]5(C)CCC(=O)C(C)(C)C5CC[C@]43C)C12 (stereo partly drawn) [Compound 11] | None of these compounds showed significant anti-invasive effects | –
2 | C=C(C)[C@@H]1CC[C@]2(C#N)CC[C@]3(C)C(CCC4[C@@]5(C)Cc6nccnc6C(C)(C)C5CC[C@]43C)C12 (stereo partly drawn) [Compound 18, Lupa-2,20(29)-dieno[2,3-b]pyrazino-28-nitrile] | inactive | –
3 | Oc1ccc2ccccc2c1SSc1c(O)ccc2ccccc12 [IPA3, reference compound] | – | morphology and actin cytoskeleton of cells in 2D monolayer [2]: clear rounding
4 | C=C(C)[C@@H]1CC[C@]2(C=O)CC[C@]3(C)C(CCC4[C@@]5(C)Cc6cnoc6C(C)(C)C5CC[C@]43C)C12 (stereo partly drawn) [Compound 7] | negligible effects on the invasive phenotype | –
5 | C=C(C)[C@@H]1CC[C@]2(C(=O)NCCC)CC[C@]3(C)C(CCC4[C@@]5(C)CCC(=O)C(C)(C)C5CC[C@]43C)C12 (stereo partly drawn) [Compound 12] | None of these compounds showed significant anti-invasive effects | –
6 | C=C(C)[C@@H]1CC[C@]2(C(=O)N3CCCCC3)CC[C@]3(C)C(CCC4[C@@]5(C)Cc6nccnc6C(C)(C)C5CC[C@]43C)C12 (stereo partly drawn) [Compound 17] | inactive | –
7 | C=C(C)[C@@H]1CC[C@]2(CO)CC[C@]3(C)C(CCC4[C@@]5(C)Cc6cnoc6C(C)(C)C5CC[C@]43C)C12 (stereo partly drawn) [Compound 10] | negligible effects on the invasive phenotype | –
8 | C=C(C)[C@@H]1CC[C@]2(C(=O)N3CCCCC3)CC[C@]3(C)C(CCC4[C@@]5(C)CCC(=O)C(C)(C)C5CC[C@]43C)C12 (stereo partly drawn) [Compound 13] | None of these compounds showed significant anti-invasive effects | –
9 | C=C(C)[C@@H]1CC[C@]2(C(=O)N3CCCCC3)CC[C@]3(C)C(CCC4[C@@]5(C)CC[C@H](O)C(C)(C)C5CC[C@]43C)C12 (stereo partly drawn) [Compound 21] | – | activity in validation (wound healing) in words [3]: inactive
10 | C=C(C)[C@@H]1CC[C@]2(COC(C)=O)CC[C@]3(C)C(CCC4[C@@]5(C)Cc6cnoc6C(C)(C)C5CC[C@]43C)C12 (stereo partly drawn) [Compound 8] | negligible effects on the invasive phenotype | –
11 | C=C(C)[C@@H]1CC[C@]2(C(N)=O)CC[C@]3(C)C(CCC4[C@@]5(C)Cc6nccnc6C(C)(C)C5CC[C@]43C)C12 (stereo partly drawn) [Compound 16] | same high level of anti-invasive effects as compound 15 | efficacy in 3D LAPC-4 culture (dendrogram clusters) [4]: most active; concentration at which anti-invasive effects are seen in 3D ([1]; 6 days treatment): 100 nM; morphology and actin cytoskeleton of cells in 2D monolayer [2]: No morphologies and visible effects on the actin cytoskeleton
12 | C[C@@H](N)[C@H]1CC[C@H](C(=O)Nc2ccncc2)CC1 [Compound Y-27632, reference compound] | – | morphology and actin cytoskeleton of cells in 2D monolayer [2]: elongation
13 | C[C@]12CC[C@H](O)CC1=CC[C@@H]1[C@@H]2CC[C@]2(C)C(c3cccnc3)=CC[C@@H]12 [abiraterone, reference compound] | – | efficacy in 3D LAPC-4 culture (dendrogram clusters) [4]: efficacy of all positive controls; effect on morphometric measures (area, complexity, dead cells) ([1]; paclitaxel at 30 and 100 nM): no noticeable effect
14 | C=C(C)[C@@H]1CC[C@]2(C(N)=O)CC[C@]3(C)C(CCC4[C@@]5(C)Cc6cnoc6C(C)(C)C5CC[C@]43C)C12 (stereo partly drawn) [Compound 9] | negligible effects on the invasive phenotype | –
15 | C=C(C)[C@@H]1CC[C@]2(C(=O)O)CC[C@]3(C)[C@H](CC[C@@H]4[C@@]5(C)CC[C@H](O)C(C)(C)[C@@H]5CC[C@]43C)[C@@H]12 [Compound 1, betulinic acid] | did not show significant anti-invasive effects | morphology and actin cytoskeleton of cells in 2D monolayer [2]: No morphologies and visible effects on the actin cytoskeleton
16 | C=C(C)[C@@H]1CC[C@]2(C(=O)N3CCOCC3)CC[C@]3(C)C(CCC4[C@@]5(C)CCC(=O)C(C)(C)C5CC[C@]43C)C12 (stereo partly drawn) [Compound 14] | None of these compounds showed significant anti-invasive effects | –

Source: paper PMC4428838, “Optimization of Invasion-Specific Effects of Betulin Derivatives on Prostate Cancer Cells through Lead Development” (PLoS ONE, 2015)
